{"source": "patent US20200179402A1", "about": "“MONOHYDROXYLATED 17ALPHA-HYDROXYPROGESTERONE CAPROATE FOR REDUCING CONTRACTILITY” (Indiana University Research and Technology Corporation, priority 2016, published 2020)", "key": {"[1]": {"tested_on": "human myometrial tissue", "experiment": "Oxytocin-induced uterine contractility in human myometrial tissue strips (myograph)", "format": "cell-based", "details": "oxytocin 100 nm; for oxytocin-induced contractile frequency / oxytocin-induced contractile force (AUC): 10^−6 M for 30 minutes, over a 4-hour period, normalized to matched vehicle control (DMSO)", "method": "In this Example, the effect of the monohydroxylated 17α-hydroxyprogesterone caproate (HPC-OH), 17α-hydroxyprogesteryl 6-hydroxycaproate, as compared to its parent compound, 17-hydoxyprogesterone caproate (HPC), and progesterone (P4) was analyzed in the setting of oxytocin-induced uterine contractility in human myometrial tissue. […] Myometrial strips (10 mm) were mounted in a digital myograph system ([…]) and maintained in modified Krebs buffer solution at physiologic temperature (37° C.) with constant premixed gas inflow. Oxytocin-induced (100 nm) contractility was measured before and after treatment with HPC-OH, HPC, or P4 (1 μm) for 30 minutes. Myometrial contractile frequency and force (AUC) were determined for each treatment over a 4-hour period and normalized to a matched vehicle control (DMSO). Statistical analysis was by student t-test (GraphPad Prism 7.0a). Statistical significance was defined as p<0.05."}, "[2]": {"tested_on": "THP-1 mononuclear cells", "experiment": "LPS-induced cytokine production by THP-1 mononuclear cells (multiplex assay)", "format": "cell-based", "details": "100 nM for 24 hours, then LPS 1 μg/mL for 24 hours", "method": "In this Example, the ability of HPC—OH to decrease systemic inflammation-induced myometrial contractility was compared to HPC and progesterone (P4).\n(§1) An in vitro model of systemic inflammation-induced uterine contractility was created with mononuclear and myometrial cell cultures to assess the effect of progestogen treatment. THP-1 mononuclear cells were cultured with HPC—OH (17α-hydroxyprogesteryl 6-hydroxycaproate), HPC, or P4 (all at 100 nM) for 24 hours then treated with lipopolysaccharide (LPS, 1 μg/mL) for 24 hours. Culture supernatant was characterized by multiplex assay for 7 inflammation-related cytokines: IL-1α, […], IL-6, IL-8, IL-10, TNFα, and MCP-1. Next, PHM1-41 human pregnancy myometrial cells pretreated with HPC for 24 hours were incubated with THP-1 culture supernatant (from the previous step) for 24 hours. Myometrial contractility was assessed after stimulation with 100 μM oxytocin by in-cell western (ICW) quantification of myosin light chain (MLC20) phosphorylation, a molecular event preceding contractility."}, "[3]": {"details": "women with history of prior spontaneous preterm birth, clinical trials; cited from earlier work"}, "[4]": {"experiment": "Pharmacokinetics in pregnant patients given intramuscular hydroxyprogesterone caproate", "details": "female, human, plasma, im, 250 mg; for AUC: AUC(1-t); for AUC / Cmax / Tmax: 250 mg intramuscular; for AUC / Cmax: mean (standard deviation)", "description": "(§2) Female patients with a singleton pregnancy received intramuscular doses of 250 mg hydroxyprogesterone caproate for the reduction of preterm birth starting between 16 weeks 0 days and 20 weeks 6 days. More particularly, the patients were divided into three sample groups: Group 1 (patients at 16-20 weeks gestation); Group 2 (patients at 24-28 weeks gestation); and Group 3 (patients at 32-36 weeks gestation). All patients had blood drawn daily for 7 days to evaluate pharmacokinetics."}, "[5]": {"tested_on": "PHM1-41 human pregnancy myometrial cells", "experiment": "MLC20 phosphorylation by in-cell western in HPC-primed myometrial cells incubated with THP-1 culture supernatant", "format": "cell-based", "details": "supernatant of treated THP-1 cells for 24 hours, 100 μM oxytocin", "method": "as §1"}, "[6]": {"details": "human, in vivo", "description": "as §2"}, "[7]": {"details": "Group 1 (16-20 weeks gestation, N = 6)"}, "[8]": {"details": "Group 2 (24-28 weeks gestation, N = 8)"}, "[9]": {"details": "Group 3 (32-36 weeks gestation, N = 11)"}}, "data": [{"compound": "CCCCCC(=O)O[C@]1(C(C)=O)CC[C@H]2[C@@H]3CCC4=CC(=O)CC[C@]4(C)[C@H]3CC[C@@]21C", "note": "[HPC, 17α-hydroxyprogesterone caproate]", "values": [{"measurement": "oxytocin-induced contractile frequency", "setting": "[1]", "result": 71, "unit": "%+/−15%"}, {"measurement": "production of IL-10", "setting": "[2]", "result": "significantly reduced"}, {"measurement": "production of MCP-1", "setting": "[2]", "result": "decreased"}, {"measurement": "significantly increase TNFα production", "setting": "[2]", "result": "significantly increase"}, {"measurement": "risk reduction of recurrent preterm delivery", "setting": "[3]", "result": 33, "unit": "%"}, {"measurement": "half-life", "setting": "[4]", "result": 394, "unit": "h"}, {"measurement": "AUC", "setting": "[4]; [7]", "result": 571, "unit": "ng·h/mL"}, {"measurement": "AUC", "setting": "[4]; [8]", "result": 1270, "unit": "ng·h/mL"}, {"measurement": "AUC", "setting": "[4]; [9]", "result": 1270, "unit": "ng·h/mL"}, {"measurement": "Cmax", "setting": "[4]; [7]", "result": 5, "unit": "ng/mL"}, {"measurement": "Cmax", "setting": "[4]; [8]", "result": 12.5, "unit": "ng/mL"}, {"measurement": "Cmax", "setting": "[4]; [9]", "result": 12.3, "unit": "ng/mL"}, {"measurement": "Tmax", "setting": "[4]; [7]", "result": 132, "unit": "h"}, {"measurement": "Tmax", "setting": "[4]; [8]", "result": 24, "unit": "h"}, {"measurement": "Tmax", "setting": "[4]; [9]", "result": 48, "unit": "h"}]}, {"compound": "CC(=O)[C@@]1(OC(=O)CCCCCO)CC[C@H]2[C@@H]3CCC4=CC(=O)CC[C@]4(C)[C@H]3CC[C@@]21C", "note": "[HPC—OH, 17α-hydroxyprogesteryl 6-hydroxycaproate]", "values": [{"measurement": "oxytocin-induced contractile force (AUC)", "setting": "[1]", "result": 66, "unit": "%+/−33%"}, {"measurement": "oxytocin-induced contractile frequency", "setting": "[1]", "result": 67, "unit": "%+/−21%"}, {"measurement": "contractile force when compared directly to HPC", "setting": "[1]; 10^−6 M, compared directly to HPC", "result": 64, "unit": "%+/−33%"}, {"measurement": "monocyte production of IL-1α", "setting": "[2]", "result": "did not result in a statistically significant change"}, {"measurement": "monocyte production of IL-1β", "setting": "[2]", "result": "did not result in a statistically significant change"}, {"measurement": "monocyte production of IL-6", "setting": "[2]", "result": "did not result in a statistically significant change"}, {"measurement": "monocyte production of IL-8", "setting": "[2]", "result": "did not result in a statistically significant change"}, {"measurement": "production of IL-10", "setting": "[2]", "result": "did not diminish"}, {"measurement": "production of MCP-1", "setting": "[2]", "result": "decreased"}, {"measurement": "significantly increase TNFα production", "setting": "[2]", "result": "not"}, {"measurement": "levels of TNFα produced, compared with exposure to HPC", "setting": "[2]; versus HPC", "result": "significantly lower"}, {"measurement": "MLC20 phosphorylation compared with HPC treated supernatant", "setting": "[5]; versus HPC treated supernatant", "result": "trended towards a significant decline"}, {"measurement": "half-life as compared to HPC", "setting": "[6]", "result": "longer half-life"}]}, {"compound": "CC(=O)[C@H]1CC[C@H]2[C@@H]3CCC4=CC(=O)CC[C@]4(C)[C@H]3CC[C@]12C", "note": "[P4, progesterone]", "values": [{"measurement": "oxytocin-induced contractile force (AUC)", "setting": "[1]", "result": 75, "unit": "%+/−30%"}, {"measurement": "oxytocin-induced contractile frequency", "setting": "[1]", "result": 63, "unit": "%+/−18%"}, {"measurement": "production of IL-10", "setting": "[2]", "result": "did not diminish"}, {"measurement": "MLC20 phosphorylation", "setting": "[5]", "result": "Increased phosphorylation"}]}]}
